{"source": "patent US10136663B2", "about": "“Curcuminoid-based compound/stevioside-containing complex for the prevention and treatment of an influenza virus infection” (priority 2011, dated 2018)", "key": {"[1]": {"experiment": "Curcumin content of curcumin/stevioside complex solution", "format": "physicochemical", "settings": "in 100 g/L of the stevioside solution, after ultrasonication at 70° C. and oven reaction"}, "[2]": {"test_system": "influenza virus type A (H9N2)", "design": "species or system chicken", "settings": "in vivo, po"}, "[3]": {"test_system": "influenza virus H9N2 (A/Chicken/Korea/MS96/96)", "settings": "dog"}, "[4]": {"test_system": "influenza virus H9N2 (A/Chicken/Korea/MS96/96)", "settings": "dog", "remark": "listed apart in the source"}}, "note": "Like-named read-outs stand apart in the source and are kept apart here.", "data": [{"smiles": "COc1cc(/C=C/C(=O)/C=C(O)/C=C/c2ccc(O)c(OC)c2)ccc1O", "note": "[Curcumin, curcumin]", "values": [{"measurement": "maximum curcumin in the resulting solution", "setting": "[1]", "result": 3.5, "unit": "g/L"}]}, {"smiles": "C=C1C[C@@]23CC[C@H]4[C@@](C)(CCC[C@@]4(C)C(=O)O[C@@H]4O[C@H](CO)[C@@H](O)[C@H](O)[C@H]4O)[C@@H]2CC[C@]1(O[C@@H]1O[C@H](CO)[C@@H](O)[C@H](O)[C@H]1O[C@@H]1O[C@H](CO)[C@@H](O)[C@H](O)[C@H]1O)C3", "note": "[G4, stevioside]", "values": [{"measurement": "Mean virus titer, Cecal Tonsil", "setting": "[2]", "result": "5.30 ± 3.5", "unit": "log10EID50/g"}, {"measurement": "Mean virus titer, Trachea", "setting": "[2]", "result": "5.80 ± 1.3", "unit": "log10EID50/g"}, {"measurement": "Virus re-isolation, Cecal Tonsil (number of virus-positive chicken/number of inoculated chickens)", "setting": "[2]", "result": "8/10"}, {"measurement": "Virus re-isolation, Trachea (number of virus-positive chicken/number of inoculated chickens)", "setting": "[2]", "result": "10/10"}]}, {"smiles": "CCOC(=O)C1=C[C@@H](OC(CC)CC)[C@H](NC(C)=O)[C@@H](N)C1", "note": "[Tamiflu, reference compound]", "values": [{"measurement": "SI, selective index, CC50/EC50", "setting": "[3]", "result": ">200"}, {"measurement": "SI, selective index, CC50/EC50", "setting": "[4]", "result": ">200"}]}]}
